Key:
Type in all cases: cell-based
Ges-1 cells = system: Ges-1 cells
Text: 2.4.1 Cytotoxicity detection

[1] = system: Helicobacter pylori HP163; test: MIC by broth microdilution method; parameters: key: +: Bacterial growth; −: No bacterial growth; details: HP163 (Levofloxacin and metronidazole resistant), 72 h
Method: (§1) 2.1 Detection of minimum inhibitory concentration (MIC, 100 µL system) of zinc linolenate for Helicobacter pylori by a broth microdilution method
(§2) (1) Zinc linolenate (2 mg/mL) is prepared.
(§3) (3) Bacterial solution preparation: the Helicobacter pylori grown in a log phase on a solid plate is taken to make a bacterial suspension with a BHI culture medium, the absorbance (OD600) is adjusted to 0.3 (1×10^8 CFU/mL), and the bacterial suspension is diluted 10 times to 1×10^7 CFU/mL for later use.
(§4) (4) Inoculation of bacterial solution: 10 μL of bacterial solution above is taken and added to the 1-8th wells (the concentration of the bacterial solution per well is about 1.0×10^6 CFU/mL). Culture is performed for 72 h to judge the result. The drug concentrations of the 1-7th wells are 64, 32, 16, 8, 4, 2, and 1 μg/mL, respectively.
(§5) The experiment only makes sense when the bacteria obviously grow in the 8th well, i.e. the positive control well (without antibiotics). When a single drift occurs in the microdilution method, the maximum drug concentration that inhibits bacterial growth should be recorded. If there are multiple drifts, the results should not be reported and the experiment should be repeated. The experiment is repeated 3 times for each drug.

[2] = system: Helicobacter pylori MSD132; test: MIC by broth microdilution method; parameters: key: +: Bacterial growth; −: No bacterial growth; details: MSD132 (Sensitive), 72 h
Method: as §1, §2, §3, §4, §5

[3] = system: Helicobacter pylori HP161; test: MIC by broth microdilution method; parameters: key: +: Bacterial growth; −: No bacterial growth; details: HP161 (Clarithromycin resistant), 72 h
Method: as §1, §2, §3, §4, §5

[4] = system: Helicobacter pylori NSH57; test: MIC by broth microdilution method; parameters: key: +: Bacterial growth; −: No bacterial growth; details: NSH57 (Sensitive), 72 h
Method: as §1, §2, §3, §4, §5

[5] = system: Helicobacter pylori HP159; test: MIC by broth microdilution method; parameters: key: +: Bacterial growth; −: No bacterial growth; details: HP159 (Levofloxacin, clarithromycin and metronidazole resistant), 72 h
Method: as §1, §2, §3, §4, §5

[6] = system: Helicobacter pylori HP160; test: MIC by broth microdilution method; parameters: key: +: Bacterial growth; −: No bacterial growth; details: HP160 (Metronidazole resistant), 72 h
Method: as §1, §2, §3, §4, §5

[7] = system: Helicobacter pylori HP285; test: MIC by broth microdilution method; parameters: key: +: Bacterial growth; −: No bacterial growth; details: HP285 (Clarithromycin and metronidazole resistant), 72 h
Method: as §1, §2, §3, §4, §5

[8] = system: Helicobacter pylori HP26695; test: MIC by broth microdilution method; parameters: key: +: Bacterial growth; −: No bacterial growth; details: HP26695 (Sensitive), 72 h
Method: as §1, §2, §3, §4, §5

[9] = system: Helicobacter pylori HP162; test: MIC by broth microdilution method; parameters: key: +: Bacterial growth; −: No bacterial growth; details: HP162 (Levofloxacin resistant), 72 h
Method: as §1, §2, §3, §4, §5

Helicobacter pylori G27 = test: MIC by broth microdilution method; parameters: key: +: Bacterial growth; −: No bacterial growth; details: G27 (Sensitive), 72 h
Method: as §1, §2, §3, §4, §5

With `CC/C=C\C/C=C\C/C=C\CCCCCCCC(=O)[O-].CC/C=C\C/C=C\C/C=C\CCCCCCCC(=O)[O-].[Zn+2]` [zinc linolenate] the “toxicity compared with linolenic acid” value (Ges-1 cells) was “smaller than that of linolenic acid”, the Bacterial growth ([1]; zinc linolenate 1 μg/ml) was “+” and the Bacterial growth ([1]; zinc linolenate 2 μg/ml) was “+”. The Bacterial growth ([1]; zinc linolenate 4 μg/ml) was “+”, the Bacterial growth ([1]; zinc linolenate 8 μg/ml) was “−” and the Bacterial growth ([1]; zinc linolenate 16 μg/ml) was “−”. The Bacterial growth ([1]; zinc linolenate 32 μg/ml) was “−”, the Bacterial growth ([1]; zinc linolenate 64 μg/ml) was “−” and the Bacterial growth ([2]; zinc linolenate 1 μg/ml) was “+”. For the same molecule, the Bacterial growth ([2]; zinc linolenate 2 μg/ml) was “+”, the Bacterial growth ([2]; zinc linolenate 4 μg/ml) was “+” and the Bacterial growth ([2]; zinc linolenate 8 μg/ml) was “−”. For the same molecule, the Bacterial growth ([2]; zinc linolenate 16 μg/ml) was “−”, the Bacterial growth ([2]; zinc linolenate 32 μg/ml) was “−” and the Bacterial growth ([2]; zinc linolenate 64 μg/ml) was “−”. The Bacterial growth ([3]; zinc linolenate 1 μg/ml) was “+”, the Bacterial growth ([3]; zinc linolenate 2 μg/ml) was “+” and the Bacterial growth ([3]; zinc linolenate 4 μg/ml) was “+”. The Bacterial growth ([3]; zinc linolenate 8 μg/ml) was “−”, the Bacterial growth ([3]; zinc linolenate 16 μg/ml) was “−” and the Bacterial growth ([3]; zinc linolenate 32 μg/ml) was “−”. For the same molecule, the Bacterial growth ([3]; zinc linolenate 64 μg/ml) was “−”, the Bacterial growth ([4]; zinc linolenate 1 μg/ml) was “+” and the Bacterial growth ([4]; zinc linolenate 2 μg/ml) was “+”. For the same molecule, the Bacterial growth ([4]; zinc linolenate 4 μg/ml) was “+”, the Bacterial growth ([4]; zinc linolenate 8 μg/ml) was “−” and the Bacterial growth ([4]; zinc linolenate 16 μg/ml) was “−”. The Bacterial growth ([4]; zinc linolenate 32 μg/ml) was “−”, the Bacterial growth ([4]; zinc linolenate 64 μg/ml) was “−” and the Bacterial growth ([5]; zinc linolenate 1 μg/ml) was “+”. The Bacterial growth ([5]; zinc linolenate 2 μg/ml) was “+”, the Bacterial growth ([5]; zinc linolenate 4 μg/ml) was “+” and the Bacterial growth ([5]; zinc linolenate 8 μg/ml) was “−”. For the same molecule, the Bacterial growth ([5]; zinc linolenate 16 μg/ml) was “−”, the Bacterial growth ([5]; zinc linolenate 32 μg/ml) was “−” and the Bacterial growth ([5]; zinc linolenate 64 μg/ml) was “−”. The Bacterial growth ([6]; zinc linolenate 1 μg/ml) was “+”, the Bacterial growth ([6]; zinc linolenate 2 μg/ml) was “+” and the Bacterial growth ([6]; zinc linolenate 4 μg/ml) was “−”. The Bacterial growth ([6]; zinc linolenate 8 μg/ml) was “−”, the Bacterial growth ([6]; zinc linolenate 16 μg/ml) was “−” and the Bacterial growth ([6]; zinc linolenate 32 μg/ml) was “−”. The Bacterial growth ([6]; zinc linolenate 64 μg/ml) was “−”, the Bacterial growth ([7]; zinc linolenate 1 μg/ml) was “+” and the Bacterial growth ([7]; zinc linolenate 2 μg/ml) was “+”. The Bacterial growth ([7]; zinc linolenate 4 μg/ml) was “+”, the Bacterial growth ([7]; zinc linolenate 8 μg/ml) was “−” and the Bacterial growth ([7]; zinc linolenate 16 μg/ml) was “−”. For the same molecule, the Bacterial growth ([7]; zinc linolenate 32 μg/ml) was “−”, the Bacterial growth ([7]; zinc linolenate 64 μg/ml) was “−” and the Bacterial growth ([8]; zinc linolenate 1 μg/ml) was “+”. The Bacterial growth ([8]; zinc linolenate 2 μg/ml) was “+”, the Bacterial growth ([8]; zinc linolenate 4 μg/ml) was “+” and the Bacterial growth ([8]; zinc linolenate 8 μg/ml) was “−”. The Bacterial growth ([8]; zinc linolenate 16 μg/ml) was “−”, the Bacterial growth ([8]; zinc linolenate 32 μg/ml) was “−” and the Bacterial growth ([8]; zinc linolenate 64 μg/ml) was “−”. For the same molecule, the Bacterial growth ([9]; zinc linolenate 1 μg/ml) was “+”, the Bacterial growth ([9]; zinc linolenate 2 μg/ml) was “−” and the Bacterial growth ([9]; zinc linolenate 4 μg/ml) was “−”. The Bacterial growth ([9]; zinc linolenate 8 μg/ml) was “−”, the Bacterial growth ([9]; zinc linolenate 16 μg/ml) was “−” and the Bacterial growth ([9]; zinc linolenate 32 μg/ml) was “−”. For the same molecule, the Bacterial growth ([9]; zinc linolenate 64 μg/ml) was “−”, the Bacterial growth (Helicobacter pylori G27; zinc linolenate 1 μg/ml) was “+” and the Bacterial growth (Helicobacter pylori G27; zinc linolenate 2 μg/ml) was “+”. For the same molecule, the Bacterial growth (Helicobacter pylori G27; zinc linolenate 4 μg/ml) was “−”, the Bacterial growth (Helicobacter pylori G27; zinc linolenate 8 μg/ml) was “−” and the Bacterial growth (Helicobacter pylori G27; zinc linolenate 16 μg/ml) was “−”. For the same molecule, the Bacterial growth (Helicobacter pylori G27; zinc linolenate 32 μg/ml) was “−” and the Bacterial growth (Helicobacter pylori G27; zinc linolenate 64 μg/ml) was “−”.

— patent US11203563B2, “Preparation of zinc linolenate, and application of zinc linolenate in preparing anti-helicobacter pylori drug” (NANJING MEDICAL UNIVERSITY, priority 2018, dated 2021)
